Test results taken from patent US8492350B2, “Therapeutic agent for pain disease” (Nippon Zoki Pharmaceutical Co., Ltd., priority 2007, dated 2013).

Key:
[1] = system: Chung model rats which are models of neuropathic pain; experiment: Test for analgesic effect (allodynia, von Frey filament, up-down method) in Chung model rats; format: in vivo, rats of Wistar strain; details: for 50% Reaction Threshold Values, Before Administration: baseline
Procedure: Test for analgesic effect was conducted using Chung model rats which are models of neuropathic pain. Male rats of Wistar strain of 9 weeks age were used as experimental animals and model rats were prepared according to a method of Kim and Chung (Pain, vol. 50, pages 355 to 363, 1992). Thus, when they were in 10 weeks age, rat L5 spinal nerve was exposed and the periphery side of L5 dorsal root ganglion was strongly ligated with 5-0 silk yarn under anesthetizing with pentobarbital (40 mg/kg, intraperitoneal administration) to conduct a nerve damage. The animals were placed in a transparent acrylic cage where the bottom was wire net, 50% reaction threshold values were calculated by an up-down method using a von Frey filament (manufactured by North Coast Medical Inc.) according to a method of Chaplan, et al. (J. Neurosci. Method, vol. 53, pages 55 to 63, 1994) and the effect of the test substance to allodynia was measured. […] In those experimental animals, each group comprised seven animals using the 50% reaction threshold values after the nerve damage as an index and the group constitution was done in such a manner that mean values of a nerve damage control group and of a test substance-administered group were made nearly uniform.
N-acetylneuraminic acid as a test substance was intraperitoneally administered in a single dose (120 mg/kg). A 0.5% CMC-Na (w/v) solution/physiological saline was similarly administered to the nerve damage control group (control group). After 30 minutes from the administration of a test substance, pain tests were conducted and the calculated 50% reaction threshold values were expressed in terms of mean value±standard deviation for each group.
Further, in the same manner as the above test, N-acetylneuraminic acid as a test substance was orally administered in a single dose (300 mg/kg). Injection solvent was administered to a nerve damage control group (control group) in the same manner. After 60 minutes from the administration of a test substance, pain tests were conducted and the 50% reaction threshold values were calculated. Numbers of the animals were eight for each of the nerve damage control group and the test substance-administered group.

[2] = disclosed in Patent Document 1 / Example 8 of Japanese Examined Patent Publication No. 63/028,411; cited from earlier work

SMILES | 50% reaction threshold value as compared with the nerve damage control group (anti-allodynia action) ([1]; both single intraperitoneal injection and single oral administration) | 50% Reaction Threshold Values, Before Administration ([1]; group later given a single intraperitoneal dose of 120 mg/kg, mean ± standard deviation) | 50% Reaction Threshold Values, Before Administration ([1]; group later given a single oral dose of 300 mg/kg) | 50% Reaction Threshold Values, After 30 minutes from Administration ([1]; single intraperitoneal dose 120 mg/kg, 30 minutes after administration, mean ± standard deviation, *P < 0.05 vs nerve damage control) | 50% Reaction Threshold Values, After 60 minutes from Administration ([1]; single oral dose 300 mg/kg, 60 minutes after administration, *P < 0.05 vs nerve damage control) | Acute toxicity [2]
CC(=O)N[C@H]1[C@H]([C@H](O)[C@H](O)CO)OC(O)(C(=O)O)C[C@@H]1O (stereo partly shown) [N-Acetylneuraminic Acid, N-acetylneuraminic acid] | significant rise | 2.63 ± 0.21 g | 2.75 ± 0.15 g | 6.74 ± 1.64* g | 4.81 ± 0.35* g | very low and safe
CC(=O)N[C@H]1[C@H]([C@H](O)[C@H](O)CO)OC(O)(C(=O)[O-])C[C@@H]1O.[Na+] (stereo partly shown) [sodium N-acetylneuraminate] | – | – | – | – | – | very lowly toxic
